Data as given in patent US4002530A, “6-Aminopenicillanic acid derivative” (Recherche et Industrie Therapeutiques (R.I.T.), priority 1975, dated 1977).
≈ marks a conversion by molar mass, not a printed value. Like-named read-outs stand apart in the source and are kept apart here.

Columns and labels:
[1] = test system: Gram-positive and Gram-negative bacteria; experiment: inhibitory activity against growth of bacteria; format: cell-based
Protocol: (§1) Antibiotic RIT D-2214 has been tested in form of the mono ammonium salt in position 3 of the penam nucleus and, for that reason, is herein below charcterized as this monoammonium salt.
(§2) The inhibitory levels were determined by the broth dilution test. A series of tubes containing varied concentrations of the monoammonium salt of antibiotic RIT D-2214 were inoculated with the test organism to determine the minimum concentration of the ammonium salt of antibiotic RIT D-2214 in mcg/ml. in the broth substrate which inhibited organism growth for a period of about twenty hours at 35° C.

Alcaligenes viscolactis = experiment: agar-diffusion method; format: cell-based
Excerpt: The testing of samples can be carried out by the well known agar-diffusion method on Petri dishes or on plates.

Proteus morganii = experiment: broth dilution test, minimum inhibitory concentration; format: cell-based; settings: Morganella morganii, about 20 hours at 35° C, tested as monoammonium salt
[2] = test system: Staphylococcus aureus Pen.resist.; experiment: as above; format: cell-based; settings: penicillin resistant, about 20 hours at 35° C, tested as monoammonium salt
Staphylococcus aureus = experiment: as above; format: cell-based; settings: about 20 hours at 35° C, tested as monoammonium salt
Protocol: as §1, §2

Shigella sonnei = experiment: as above; format: cell-based; settings: about 20 hours at 35° C, tested as monoammonium salt
Protocol: as §1, §2

[3] = test system: Gram-positive and Gram-negative microorganisms; experiment: in vivo activity against microorganisms; design: species or system mice
Protocol: (§3) Comparative trials with ampicillin were performed in vivo according to the usual mice protection test procedure. The test compound was administered in graded dilutions to mice either subcutaneously (s.c.) in water or orally (or.) in combination with calcium carbonate one hour after intravenous infection with uniformly lethal doses of the test organism.

Shigella flexneri 25 = experiment: mice protection test; format: in vivo; settings: Shigella flexneri, 25, sc, 72 h; s.c., one hour after intravenous infection, observed 3 days; read-out: ED50 (total dose required to protect 50% of the infected mice)
Protocol: as §3

Salmonella panama 20 = experiment: mice protection test; format: in vivo; settings: Salmonella enterica, 20, sc, 72 h; s.c., one hour after intravenous infection, observed 3 days; read-out: ED50 (total dose required to protect 50% of the infected mice)
Protocol: as §3

Proteus mirabilis 11 = experiment: mice protection test; format: in vivo; settings: Proteus mirabilis, 11, sc, 72 h; s.c., one hour after intravenous infection, observed 3 days; read-out: ED50 (total dose required to protect 50% of the infected mice)
Protocol: as §3

Escherichia coli 47 = experiment: mice protection test; format: in vivo; settings: Escherichia coli, 47, sc, 72 h; s.c., one hour after intravenous infection, observed 3 days; read-out: ED50 (total dose required to protect 50% of the infected mice)
Protocol: as §3

[4] = test system: Vibrio parahaemoliticus 194; experiment: mice protection test; format: in vivo; settings: Vibrio, 194, 72 h; oral with calcium carbonate, one hour after intravenous infection, observed 3 days; read-out: ED50 (total dose required to protect 50% of the infected mice)
Protocol: as §3

Escherichia coli 9 = experiment: mice protection test; format: in vivo; settings: Escherichia coli, 9, sc, 72 h; s.c., one hour after intravenous infection, observed 3 days; read-out: ED50 (total dose required to protect 50% of the infected mice)
Protocol: as §3

[5] = test system: Staphylococcus aureus 663; experiment: mice protection test; format: in vivo; settings: Staphylococcus aureus, 663, sc, 72 h; s.c., one hour after intravenous infection, observed 3 days; read-out: ED50 (total dose required to protect 50% of the infected mice)
Protocol: as §3

[6] = test system: Salmonella brandebourg 22; experiment: mice protection test; format: in vivo; settings: Salmonella, 22, sc, 72 h; s.c., one hour after intravenous infection, observed 3 days; read-out: ED50 (total dose required to protect 50% of the infected mice)
Protocol: as §3

[7] = test system: Salmonella enteritidis 24; experiment: mice protection test; format: in vivo; settings: Salmonella enterica, sc, 72 h, s.c., one hour after intravenous infection, observed 3 days, read-out: ED50 (total dose required to protect 50% of the infected mice)
Protocol: as §3

[8] = test system: Klebsiella pneumoniae SK&F 4200; experiment: mice protection test; format: in vivo; settings: 72 h, one hour after intravenous infection, observed 3 days, read-out: ED50 (total dose required to protect 50% of the infected mice)
Protocol: as §3

Klebsiella pneumoniae = experiment: broth dilution test, minimum inhibitory concentration; format: cell-based; settings: about 20 hours at 35° C, tested as monoammonium salt
Pseudomonas aeruginosa = experiment: as above; format: cell-based; settings: about 20 hours at 35° C, tested as monoammonium salt
in vivo [9] = experiment: in vivo; design: species or system mice; settings: mouse, sc, 20 mg/kg
Excerpt: (§4) Plasma samples were adequately diluted with sterile water and assayed according to the usual agar diffusion method, using Bacillus subtilis ATCC 6633 as the test organism.

Salmonella typhimurium = experiment: broth dilution test, minimum inhibitory concentration; format: cell-based; settings: Salmonella enterica, about 20 hours at 35° C, tested as monoammonium salt
physchem = format: physicochemical
Excerpt: Antibiotic RIT D-2214 can be colorimetrically assayed by the classical hydroxylamine method of penicillin assay. […] Recoveries were estimated according to the hydroxylamine assay method.

Salmonella panama = experiment: broth dilution test, minimum inhibitory concentration; format: cell-based; settings: Salmonella enterica, about 20 hours at 35° C, tested as monoammonium salt
Proteus mirabilis = experiment: as above; format: cell-based; settings: read-out: Minimum Inhibitory concentration
Aerobacter aerogenes = experiment: as above; format: cell-based; settings: Klebsiella aerogenes, read-out: Minimum Inhibitory concentration
Alcaligenes faecalis = experiment: as above; format: cell-based; settings: about 20 hours at 35° C, tested as monoammonium salt
in vivo [10] = experiment: in vivo; design: species or system rats; settings: rat, sc, 20 mg/kg
Excerpt: as §4

Salmonella meleagridis = experiment: broth dilution test, minimum inhibitory concentration; format: cell-based; settings: about 20 hours at 35° C, tested as monoammonium salt
Brucella abortus = experiment: microbe, parasite or virus in culture; format: cell-based; settings: 20 h, read-out: Minimum Inhibitory concentration
[11] = stability in water solution; format: physicochemical; settings: 4° C, not more than 7 days
[12] = test system: Bordetella bronchiseptica; experiment: broth dilution test, minimum inhibitory concentration; format: cell-based; settings: about 20 hours at 35° C, tested as monoammonium salt
in vivo [13] = experiment: in vivo; design: species or system dogs; settings: dog, sc, 20 mg/kg
Excerpt: as §4

Bacillus subtilis = experiment: broth dilution test, minimum inhibitory concentration; format: cell-based; settings: about 20 hours at 35° C, tested as monoammonium salt
Salmonella anatum = experiment: as above; format: cell-based; settings: Salmonella enterica, about 20 hours at 35° C, tested as monoammonium salt
Vibrio el tor = experiment: as above; format: cell-based; settings: about 20 hours at 35° C, tested as monoammonium salt
Escherichia coli = experiment: as above; format: cell-based; settings: read-out: Minimum Inhibitory concentration
Corynebacterium xerosis = experiment: as above; format: cell-based; settings: about 20 hours at 35° C, tested as monoammonium salt
E. coli Pen. resistant = experiment: as above; format: cell-based; settings: Escherichia coli, penicillin resistant, about 20 hours at 35° C, tested as monoammonium salt
Salmonella typhi = experiment: as above; format: cell-based; settings: Salmonella enterica, 20 h, read-out: Minimum Inhibitory concentration
[14] = test system: Staphylococcal preparation of β-lactamase; experiment: destruction by Staphylococcal preparation of β-lactamase (Penase Leo); format: biochemical
Salmonella paratyphi = experiment: broth dilution test, minimum inhibitory concentration; format: cell-based; settings: Salmonella enterica, 20 h, read-out: Minimum Inhibitory concentration
mice = settings: mouse, in vivo, iv, 500 mg/kg
solubility = format: physicochemical
[15] = broth dilution, about 20 hours at 35° C, tested as monoammonium salt

## CC1(C)S[C@@H]2[C@H](NC(=O)CSCC(N)C(=O)O)C(=O)N2[C@H]1C(=O)O (mixture of isomers) [RIT DL-2214]
[1]; compared with the RIT 2214 form named in the sentence
  antibacterial activity relative to another RIT 2214 form: approximately half

## CC1(C)S[C@@H]2[C@H](NC(=O)CSC[C@@H](N)C(=O)O)C(=O)N2[C@H]1C(=O)O [RIT D-2214, 6-(D)-{[(2-amino-2-carboxy)-ethylthio]-acetamido}-penicillanic acid]
Alcaligenes viscolactis
  sensitivity of Alcaligenes viscolactis: very high sensitivity
Proteus morganii
  MIC: 40 µg/mL
[2]
  MIC: 80 µg/mL
Staphylococcus aureus
  MIC: 1.25 µg/mL
Shigella sonnei
  MIC: 20 µg/mL
[3]; Gram-positive and Gram-negative microorganisms
  in vivo activity: exhibits in vivo activity
[3]; oral
  efficacy when administered orally: less advantageous when administered orally
Shigella flexneri 25
  ED50: 52.5 mg/kg
Salmonella panama 20
  ED50: < 10 mg/kg
Proteus mirabilis 11
  ED50: < 10 mg/kg
Escherichia coli 47
  ED50: < 10 mg/kg
[4]
  ED50: 22.7 mg/kg
Escherichia coli 9
  ED50: 10.9 mg/kg
[5]
  ED50: < 11 mg/kg
[6]
  ED50: 13 mg/kg
[7]
  ED50: 13.5 mg/kg
[8]; oral with calcium carbonate
  ED50: 25.3 mg/kg
[8]; sc, s.c.
  ED50: < 11 mg/kg
Klebsiella pneumoniae
  MIC: 80 µg/mL
Pseudomonas aeruginosa
  MIC: 80 µg/mL
In vivo [9]
  concentration at 5 min: 13000 ng/mL
  concentration at 0.25 h: 15000 ng/mL
  concentration at 0.5 h: 10000 ng/mL
  concentration at 1 h: 6000 ng/mL
Salmonella typhimurium
  MIC: 40 µg/mL
physchem
  stability under acid conditions: relatively stable under acid conditions
physchem; reconstituted gastric juice, pH 1.3
  half-life: 25 min
Salmonella panama
  MIC: 40 µg/mL
Proteus mirabilis; 20 h
  MIC: 1.25 µg/mL (≈ 3.31 µM)
Aerobacter aerogenes; 20 h
  MIC: 1.25 µg/mL (≈ 3.31 µM)
Alcaligenes faecalis
  MIC: 1.6 µg/mL
In vivo [10]
  concentration at 5 min: 12000 ng/mL
  concentration at 0.25 h: 23000 ng/mL
  concentration at 0.5 h: 17000 ng/mL
  concentration at 1 h: 12000 ng/mL
  concentration at 2 h: 7500 ng/mL
Salmonella meleagridis
  MIC: 0.6 µg/mL
Brucella abortus
  MIC: 20 µg/mL (≈ 53 µM)
[11]
  stability in water solution: relatively stable
[12]
  MIC: 0.6 µg/mL
In vivo [13]
  concentration at 0.25 h: 18000 ng/mL
  concentration at 0.5 h: 23000 ng/mL
  concentration at 1 h: 22500 ng/mL
  concentration at 2 h: 9000 ng/mL
Bacillus subtilis
  MIC: 0.3 µg/mL
Salmonella anatum
  MIC: 0.6 µg/mL
[1]; Gram-positive and Gram-negative bacteria
  inhibitory activity against the growth of bacteria: exhibits inhibitory activity
Vibrio el tor
  MIC: 0.6 µg/mL
Escherichia coli; 20 h
  MIC: 1.25 µg/mL (≈ 3.31 µM)
Corynebacterium xerosis
  MIC: < 0.02 µg/mL
E. coli Pen. resistant
  MIC: 80 µg/mL
Salmonella typhi
  MIC: 0.6 µg/mL (≈ 1.59 µM)
[14]
  destruction by β-lactamase: rapidly destroyed
Salmonella paratyphi
  MIC: 1.25 µg/mL (≈ 3.31 µM)

## CC1(C)S[C@@H]2[C@H](NC(=O)CSC[C@H](N)C(=O)O)C(=O)N2[C@H]1C(=O)O [RIT L-2214]
Proteus morganii
  MIC: 80 µg/mL
[2]
  MIC: 80 µg/mL
Staphylococcus aureus
  MIC: 1.25 µg/mL
Shigella sonnei
  MIC: 80 µg/mL
Klebsiella pneumoniae
  MIC: 80 µg/mL
Pseudomonas aeruginosa
  MIC: 80 µg/mL
Proteus mirabilis; [15]
  MIC: 20 µg/mL
Aerobacter aerogenes; [15]
  MIC: 20 µg/mL
Bacillus subtilis
  MIC: 0.31 µg/mL
Escherichia coli; [15]
  MIC: 40 µg/mL
E. coli Pen. resistant
  MIC: 80 µg/mL
Salmonella paratyphi
  MIC: 20 µg/mL (≈ 53 µM)

## CC1(C)S[C@@H]2[C@H](NC(=O)CSC[C@@H](N)C(=O)O)C(=O)N2[C@H]1C(=O)O
mice
  detectable toxicity: does not show any detectable toxicity
solubility; methanol
  solubility in methanol: slightly soluble in methanol
solubility; organic solvents other than methanol
  solubility in other organic solvents: insoluble in other organic solvents
solubility; water
  solubility in water: very soluble in water
